ChEMBL document CHEMBL6114943, “Engineered Cyclotide Blocks Neuronal Excitotoxicity” (J Med Chem, 2025)
Each block holds one molecule with its values, some of them ahead of it. Activity calls are given as the source filed them. The rule behind the calls is not given here. Where a SMILES comes first, the peptide text is derived from it. Bridges are numbered along the chain shown (N, C = ends).

Columns and labels:
[1] = Stability in C57BL/6 mouse plasma assessed as half life at 100 uM incubated for 300 min by HPLC analysis; type: ADME, cell-free
[2] = Stability in C57BL/6 mouse plasma assessed as parent compound remaining at 100 uM measured after 5 hrs by HPLC analysis relative to control; type: ADME, cell-free; conditions: read-out: Stability
[3] = Stability in C57BL/6 mouse plasma assessed as drug degradation at 100 uM measured < 15 mins in presence of alteplase by HPLC analysis; type: ADME, cell-free; conditions: 0.25 h
[4] = Stability in C57BL/6 mouse plasma assessed as parent compound remaining at 100 uM measured after 24 hrs in presence of alteplase by HPLC analysis relative to control; type: ADME, cell-free; conditions: read-out: Stability
[5] = Stability in C57BL/6 mouse plasma assessed as parent compound remaining at 100 uM measured after 24 hrs by HPLC analysis; type: ADME, cell-free; conditions: read-out: Stability
[6] = Stability in C57BL/6 mouse plasma assessed as drug degradation by measuring parent compound remaining at 100 uM measured after 5 hrs by HPLC analysis relative to control; type: ADME, cell-free; conditions: read-out: Stability
[7] = Stability in C57BL/6 mouse plasma assessed as drug degradation by measuring parent compound remaining at 100 uM measured after 5 hrs in presence of alteplase by HPLC analysis relative to control; type: ADME, cell-free; conditions: read-out: Stability
[8] = Stability in C57BL/6 mouse plasma assessed as drug degradation at 100 uM measured after 5 hrs in presence of alteplase by HPLC analysis; type: ADME, cell-free
Neuron [9] = experiment: Neuroprotective activity against NMDA-induced cell death in mouse primary neuron assessed as reduction in cell viability preincubated with compound for 1 hrs followed by NMDA addition and measured after 1 hrs by PI staining based analysis relative to control; type: functional; conditions: time 2.0 hrs
Mus musculus [10] = experiment: Neuroprotective activity against pilocarpine-induced seizure in C57BL6 mouse assessed as survival rate at 3 nmol/g, iv pretreated with compound for 1 hrs followed by pilocarpine induction and measured after 2 hrs relative to control; type: functional; conditions: time 3 hrs
Neuron [11] = experiment: Cytotoxicity against mouse primary neuron upto 1 uM incubated for 24 hrs; type: toxicity, cell-based
[12] = Drug uptake in mouse Primary neuron at 500 nM incubated for 60 mins by inverted confocal microscopic analysis relative to control; type: ADME, cell-based; conditions: 1 h, 0.5 µM
[13] = Drug uptake in mouse Primary neuron at 100 nM measured at 60 mins by inverted confocal microscopic analysis; type: ADME, cell-based; conditions: 1 h, 0.1 µM
[14] = Drug uptake in mouse Primary neuron at 100 nM incubated for 60 mins by inverted confocal microscopic analysis relative to control; type: ADME, cell-based; conditions: 1 h, 0.1 µM
Neuron [15] = experiment: Neuroprotective activity against Amyloid beta-induced cell death in mouse primary neuron assessed as cell viability preincubated with compound for 1 hrs followed by Amyloid beta addition and measured after 1 hrs by PI staining based analysis relative to control; type: functional; conditions: time 2 hrs
Neuron [16] = experiment: Neuroprotective activity against NMDA-induced cell death in mouse primary neuron assessed as cell viability preincubated with compound for 1 hrs followed by NMDA addition and measured after 1 hrs by PI staining based analysis relative to control; type: functional; conditions: time 2 hrs
Disks large homolog 4 = Disks large homolog 4 (Homo sapiens, UniProt P78352); experiment: Binding affinity to PSD-95 (unknown origin) assessed as binding constant (Kd) by MST analysis
[17] = Toxicity in C57BL/6 mouse assessed as histological changes in spleen at 3 nmol/g, iv administered 3 consecutive days by H and E staining based analysis; type: organism-based; conditions: in vivo
[18] = Toxicity in C57BL/6 mouse assessed as histological changes in liver at 3 nmol/g, iv administered 3 consecutive days by H and E staining based analysis; type: organism-based; conditions: in vivo
[19] = Toxicity in C57BL/6 mouse assessed as histological changes in kidney at 3 nmol/g, iv administered 3 consecutive days by H and E staining based analysis; type: organism-based; conditions: in vivo
[20] = Toxicity in C57BL/6 mouse assessed as histological changes in lung at 3 nmol/g, iv administered 3 consecutive days by H and E staining based analysis; type: organism-based; conditions: in vivo
Neuron [21] = experiment: Neuroprotective activity against Amyloid beta-induced cell death in mouse primary neuron assessed as cell viability at 100 nM preincubated with compound for 1 hrs followed by Amyloid beta addition and measured after 1 hrs by PI staining based analysis; type: functional; conditions: time 2.0 hrs
Neuron [22] = experiment: Neuroprotective activity against NMDA-induced cell death in mouse primary neuron assessed as reduction in cell viability at 100 nM preincubated with compound for 1 hrs followed by NMDA addition and measured after 1 hrs by PI staining based analysis (reference value: 60.01 +/- 4%); type: functional; conditions: time 2 hrs
Mus musculus [23] = experiment: Neuroprotective activity against pilocarpine-induced seizure in C57BL6 mouse assessed as survival rate at 30 nmol/g, po pretreated with compound for 1 hrs followed by pilocarpine induction and measured after 2 hrs relative to control; type: functional; conditions: time 3 hrs

Chain of Disks large homolog 4 (P78352 whole entry): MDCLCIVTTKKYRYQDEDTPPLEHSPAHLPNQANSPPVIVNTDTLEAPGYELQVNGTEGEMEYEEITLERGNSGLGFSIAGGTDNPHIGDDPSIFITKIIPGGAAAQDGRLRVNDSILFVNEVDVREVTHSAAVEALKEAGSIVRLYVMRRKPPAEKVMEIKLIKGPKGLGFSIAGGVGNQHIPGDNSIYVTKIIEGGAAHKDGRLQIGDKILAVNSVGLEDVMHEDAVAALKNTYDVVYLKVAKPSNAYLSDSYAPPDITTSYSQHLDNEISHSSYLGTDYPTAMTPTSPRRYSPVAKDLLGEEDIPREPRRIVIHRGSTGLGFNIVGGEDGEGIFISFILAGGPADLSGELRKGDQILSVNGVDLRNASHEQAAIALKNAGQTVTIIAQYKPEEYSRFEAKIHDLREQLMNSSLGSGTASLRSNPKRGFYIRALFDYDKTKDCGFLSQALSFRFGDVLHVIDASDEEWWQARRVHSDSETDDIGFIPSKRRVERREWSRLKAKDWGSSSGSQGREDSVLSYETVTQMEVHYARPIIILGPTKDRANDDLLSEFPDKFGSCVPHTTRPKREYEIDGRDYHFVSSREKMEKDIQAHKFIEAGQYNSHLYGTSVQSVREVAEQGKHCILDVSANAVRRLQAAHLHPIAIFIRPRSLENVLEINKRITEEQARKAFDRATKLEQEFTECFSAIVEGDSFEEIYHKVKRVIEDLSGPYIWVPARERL

SMILES: CC[C@@H](C)[C@@H](NC(=O)[C@@H](CO)NC(=O)[C@@H](CO)NC(=O)[C@@H](CC(C)C)NC(=O)[C@@H](CCCCN)NC(=O)[C@@H](CCCNC(=N)N)NC(=O)[C@@H](CCCNC(=N)N)NC(=O)[C@@H](CCCNC(=N)N)NC(=O)[C@@H](CCC(N)=O)NC(=O)[C@@H](CCCNC(=N)N)NC(=O)[C@@H](CCCNC(=N)N)NC(=O)[C@@H](CCCCN)NC(=O)[C@@H](CCCCN)NC(=O)[C@@H](CCCNC(=N)N)NC(=O)CNC(=O)[C@@H](Cc1ccc(O)cc1)NC(=O)c1ccc(C(=O)[O-])cc1-c1c2ccc(=[N+](C)C)cc-2oc2cc(N(C)C)ccc12)C(=O)N[C@H](CCC(=O)O)C(=O)N[C@H](CO)C(=O)N[C@H](CC(=O)O)C(=O)N[C@@H](C(=O)O)C(C)C
remaining at 24 h, 100 µM [4]: 80%
remaining at 24 h, 100 µM [5]: 80%
remaining at 5 h, 100 µM [6]: 85%
remaining at 5 h, 100 µM [7]: 82%
Stability [8]: Unstable

SMILES: CC[C@H](C)[C@@H]1NC(=O)[C@H](CO)NC(=O)[C@H](CO)NC(=O)[C@H](CC(C)C)NC(=O)[C@H](CCCCN)NC(=O)[C@@H]2CSSC[C@@H]3NC(=O)[C@H](CC(=O)O)NC(=O)[C@H](CO)NC(=O)[C@H](CC(=O)O)NC(=O)[C@H](CCCNC(=N)N)NC(=O)[C@H](CCCNC(=N)N)NC(=O)[C@@H]4CSSC[C@H](NC(=O)[C@H]([C@@H](C)CC)NC(=O)[C@H](CSSC[C@H](NC(=O)[C@H](C)NC(=O)[C@H](CC(=O)O)NC(=O)[C@H](C)NC(=O)[C@H](CCC(=O)O)NC1=O)C(=O)N1CCC[C@H]1C(=O)N[C@@H](CCCNC(=N)N)C(=O)N[C@@H]([C@@H](C)CC)C(=O)N[C@@H](CC(C)C)C(=O)N[C@@H](CCCNC(=N)N)C(=O)N[C@@H](CCCNC(=N)N)C(=O)N[C@@H](CCCNC(=N)N)C(=O)N[C@@H](CCCNC(=N)N)C(=O)N4)NC(=O)[C@H](C)NC(=O)CNC(=O)[C@@H]1CCCN1C3=O)C(=O)N[C@@H](CCCNC(=N)N)C(=O)NCC(=O)N[C@@H](CC(N)=O)C(=O)NCC(=O)N[C@@H](Cc1ccc(O)cc1)C(=O)N2 (cyclo(ACICRGNGYCKLSSIEADACPRILRRRRCRRDSDCPG); disulfide 2-20, 4-29, 10-35)
Activity (Neuron [9]): inactive
Survival (Mus musculus [10]): 30%
Activity (Neuron [11]): Non-toxic

SMILES: CC[C@H](C)[C@@H]1NC(=O)[C@@H]2CSSC[C@@H]3NC(=O)[C@H](C(C)C)NC(=O)[C@H](CC(=O)O)NC(=O)[C@H](CO)NC(=O)[C@H](CCC(=O)O)NC(=O)[C@H]([C@@H](C)CC)NC(=O)[C@H](CO)NC(=O)[C@H](CO)NC(=O)[C@H](CC(C)C)NC(=O)[C@H](CCCCN)NC(=O)[C@@H]4CSSC[C@H](NC(=O)[C@H](CC(=O)O)NC(=O)[C@H](CO)NC(=O)[C@H](CC(=O)O)NC(=O)[C@H](CCCNC(=N)N)NC(=O)[C@H](CCCNC(=N)N)NC(=O)[C@H](CSSC[C@H](NC1=O)C(=O)N[C@@H](CCCNC(=N)N)C(=O)NCC(=O)N[C@@H](CC(N)=O)C(=O)NCC(=O)N[C@@H](Cc1ccc(O)cc1)C(=O)N4)NC(=O)[C@H](CCCCN)NC(=O)[C@H](CCCCN)NC(=O)[C@H](CC(C)C)NC(=O)[C@H]([C@@H](C)CC)NC(=O)[C@H](CCCCN)NC(=O)[C@@H]1CCCN1C3=O)C(=O)N1CCC[C@H]1C(=O)NCC(=O)N[C@@H](C)C(=O)N2 (cyclo(ACICRGNGYCKLSSIESDVCPKILKKCRRDSDCPG); disulfide 2-20, 4-27, 10-33) [listing 2 of 2 here]
Activity (Neuron [15]): 32.6%
Activity (Neuron [16]): 31.8%

SMILES: CC[C@H](C)[C@H](NC(=O)[C@H](CO)NC(=O)[C@H](CO)NC(=O)[C@H](CC(C)C)NC(=O)[C@H](CCCCN)NC(=O)[C@H](CCCNC(=N)N)NC(=O)[C@H](CCCNC(=N)N)NC(=O)[C@H](CCCNC(=N)N)NC(=O)[C@H](CCC(N)=O)NC(=O)[C@H](CCCNC(=N)N)NC(=O)[C@H](CCCNC(=N)N)NC(=O)[C@H](CCCCN)NC(=O)[C@H](CCCCN)NC(=O)[C@H](CCCNC(=N)N)NC(=O)CNC(=O)[C@@H](N)Cc1ccc(O)cc1)C(=O)N[C@@H](CCC(=O)O)C(=O)N[C@@H](CO)C(=O)N[C@@H](CC(=O)O)C(=O)N[C@H](C(=O)O)C(C)C [NERINETIDE]
Activity (Neuron [21]): Active
Activity (Neuron [22]): 13.12%
Survival (Mus musculus [10]): 85%
Survival (Mus musculus [23]): 50%

Now from value to molecule, other results behind:

half-life at 100 µM [1]: ~45 min
remaining at 5 h, 100 µM [2]: 9%
Stability [3]: Unstable
SMILES: CC[C@H](C)[C@H](NC(=O)[C@H](CO)NC(=O)[C@H](CO)NC(=O)[C@H](CC(C)C)NC(=O)[C@H](CCCCN)NC(=O)[C@H](CCCNC(=N)N)NC(=O)[C@H](CCCNC(=N)N)NC(=O)[C@H](CCCNC(=N)N)NC(=O)[C@H](CCC(N)=O)NC(=O)[C@H](CCCNC(=N)N)NC(=O)[C@H](CCCNC(=N)N)NC(=O)[C@H](CCCCN)NC(=O)[C@H](CCCCN)NC(=O)[C@H](CCCNC(=N)N)NC(=O)CNC(=O)[C@H](Cc1ccc(O)cc1)NC(=O)c1ccc(C(=O)[O-])cc1-c1c2ccc(=[N+](C)C)cc-2oc2cc(N(C)C)ccc12)C(=O)N[C@@H](CCC(=O)O)C(=O)N[C@@H](CO)C(=O)N[C@@H](CC(=O)O)C(=O)N[C@H](C(=O)O)C(C)C

Drug uptake [12]: 70.6%
Drug uptake [13]: Active
Drug uptake [14]: Not_active
SMILES: CC[C@H](C)[C@@H]1NC(=O)[C@@H]2CSSC[C@@H]3NC(=O)[C@H](C(C)C)NC(=O)[C@H](CC(=O)O)NC(=O)[C@H](CO)NC(=O)[C@H](CCC(=O)O)NC(=O)[C@H]([C@@H](C)CC)NC(=O)[C@H](CO)NC(=O)[C@H](CO)NC(=O)[C@H](CC(C)C)NC(=O)[C@H](CCCCN)NC(=O)[C@@H]4CSSC[C@H](NC(=O)[C@H](CC(=O)O)NC(=O)[C@H](CO)NC(=O)[C@H](CC(=O)O)NC(=O)[C@H](CCCNC(=N)N)NC(=O)[C@H](CCCNC(=N)N)NC(=O)[C@H](CSSC[C@H](NC1=O)C(=O)N[C@@H](CCCNC(=N)N)C(=O)NCC(=O)N[C@@H](CC(N)=O)C(=O)NCC(=O)N[C@@H](Cc1ccc(O)cc1)C(=O)N4)NC(=O)[C@H](CCCCN)NC(=O)[C@H](CCCCN)NC(=O)[C@H](CC(C)C)NC(=O)[C@H]([C@@H](C)CC)NC(=O)[C@H](CCCCN)NC(=O)[C@@H]1CCCN1C3=O)C(=O)N1CCC[C@H]1C(=O)NCC(=O)N[C@@H](C)C(=O)N2 (cyclo(ACICRGNGYCKLSSIESDVCPKILKKCRRDSDCPG); disulfide 2-20, 4-27, 10-33) [listing 1 of 2 here]
Activity (Neuron [11]): Non-toxic

Kd (Disks large homolog 4): 1.2 µM
SMILES: CC[C@H](C)[C@H](NC(=O)[C@H](CO)NC(=O)[C@H](CO)NC(=O)[C@H](CC(C)C)NC(=O)[C@H](CCCCN)NC(=O)[C@H](CCCN=C(N)N)NC(=O)[C@H](CCCN=C(N)N)NC(=O)[C@H](CCCN=C(N)N)NC(=O)[C@H](CCC(N)=O)NC(=O)[C@H](CCCN=C(N)N)NC(=O)[C@H](CCCN=C(N)N)NC(=O)[C@H](CCCCN)NC(=O)[C@H](CCCCN)NC(=O)[C@H](CCCN=C(N)N)NC(=O)CNC(=O)[C@@H](N)Cc1ccc(O)cc1)C(=O)N[C@@H](CCC(=O)O)C(=O)N[C@@H](CO)C(=O)N[C@@H](CC(=O)O)C(=O)N[C@H](C(=O)O)C(C)C [NERINETIDE]
Activity [17]: Non-toxic
Activity [18]: Non-toxic
Activity [19]: Non-toxic
Activity [20]: Non-toxic
Activity (Neuron [11]): Non-toxic
